# ChEMBL document CHEMBL4417631, “Oral peptide inhibitors of interleukin-23 receptor and their use to treat inflammatory bowel diseases” (2017)
# Where a SMILES comes first, the peptide text is derived from it. [ ]: non-standard residue; d: D form. Phe(3,4-(OMe)2) = COc1ccc(C[C@H](N)C(=O)O)cc1OC; Phe(4-CONH2) = NC(=O)c1ccc(C[C@H](N)C(=O)O)cc1; 2Nal = N[C@@H](Cc1ccc2ccccc2c1)C(=O)O; AEF = NCCOc1ccc(C[C@H](N)C(=O)O)cc1; Pen = CC(C)(S)[C@H](N)C(=O)O; αMeV = CC(C)[C@](C)(N)C(=O)O; Aib = CC(C)(N)C(=O)O
# Target: T1, Interleukin-23 receptor (Homo sapiens, UniProt Q5VWK5)
# T1 sequence (Q5VWK5 whole entry): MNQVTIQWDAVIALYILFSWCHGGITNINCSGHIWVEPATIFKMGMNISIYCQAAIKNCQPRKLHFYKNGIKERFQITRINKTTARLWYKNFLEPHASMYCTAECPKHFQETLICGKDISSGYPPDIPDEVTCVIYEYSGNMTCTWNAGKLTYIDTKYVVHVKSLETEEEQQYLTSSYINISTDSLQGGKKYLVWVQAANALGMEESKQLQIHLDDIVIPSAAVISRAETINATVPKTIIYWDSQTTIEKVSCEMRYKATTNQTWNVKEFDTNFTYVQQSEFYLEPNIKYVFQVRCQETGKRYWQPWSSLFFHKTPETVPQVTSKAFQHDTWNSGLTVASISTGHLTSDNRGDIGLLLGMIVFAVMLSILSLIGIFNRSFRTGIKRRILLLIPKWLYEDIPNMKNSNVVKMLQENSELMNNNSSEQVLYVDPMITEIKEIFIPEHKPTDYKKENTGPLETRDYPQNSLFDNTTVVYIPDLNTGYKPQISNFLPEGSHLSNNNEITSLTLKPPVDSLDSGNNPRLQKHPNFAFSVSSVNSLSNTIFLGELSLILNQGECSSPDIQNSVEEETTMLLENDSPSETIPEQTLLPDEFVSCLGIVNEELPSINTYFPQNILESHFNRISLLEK
# Assay: Inhibition of interleukin-23 receptor in human DB cells assessed as reduction in IL-23-stimulated STAT3 phosphorylation incubated for 30 mins by HTRF assay
# Format: cell-based
row,IC50,Structure (SMILES)
1,< 0.01 µM,CC(=O)NCCCC[C@H](NC(=O)C(C)(C)NC(=O)[C@H](Cc1ccc2ccccc2c1)NC(=O)[C@H](Cc1ccc(OCCN)cc1)NC(=O)[C@@H](NC(=O)[C@H](CCC(N)=O)NC(=O)[C@H](Cc1c[nH]c2ccccc12)NC(=O)[C@@H](NC(=O)[C@H](CCC(N)=O)NC(=O)[C@@H](NC(=O)[C@H](Cc1ccc2ccccc2c1)NC(C)=O)C(C)(C)S)[C@@H](C)O)C(C)(C)S)C(=O)N[C@@H](CC(N)=O)C(=O)N[C@@H](CC(N)=O)C(N)=O
2,< 0.01 µM,CC(=O)NCCOc1ccc(C[C@H](NC(=O)[C@@H](NC(=O)[C@H](CCC(N)=O)NC(=O)[C@H](Cc2c[nH]c3ccccc23)NC(=O)[C@@H](NC(=O)[C@H](CCC(N)=O)NC(=O)[C@@H](NC(C)=O)C(C)(C)S)[C@@H](C)O)C(C)(C)S)C(=O)N[C@@H](Cc2ccc3ccccc3c2)C(=O)N[C@](C)(C(=O)N[C@@H](CCCCN)C(=O)N[C@@H](CC(N)=O)C(=O)N[C@@H](CC(N)=O)C(N)=O)C(C)C)cc1
3,< 0.01 µM,CC(=O)NCCCC[C@H](NC(=O)C(C)(C)NC(=O)[C@H](Cc1ccc2ccccc2c1)NC(=O)[C@H](Cc1ccc(OCCN)cc1)NC(=O)[C@@H](NC(=O)[C@H](CCC(N)=O)NC(=O)[C@H](Cc1c[nH]c2ccccc12)NC(=O)[C@@H](NC(=O)[C@@H](NC(=O)[C@@H](NC(C)=O)C(C)(C)S)[C@@H](C)O)[C@@H](C)O)C(C)(C)S)C(=O)N[C@@H](CC(N)=O)C(=O)N[C@@H](CCC(N)=O)C(N)=O
4,0.1 to 1 µM,CC(=O)N[C@H]1CCSC[C@@H](C(=O)N[C@H]2Cc3ccc(cc3)OCCNC(=O)C[C@@H](C(=O)NCC(N)=O)NC(=O)[C@H](CCC(N)=O)NC(=O)[C@](C)(CC(C)C)NC(=O)[C@H](Cc3ccc4ccccc4c3)NC2=O)NC(=O)[C@H](CCC(N)=O)NC(=O)[C@H](Cc2c[nH]c3ccccc23)NC(=O)[C@H]([C@@H](C)O)NC(=O)[C@H](CCC(N)=O)NC1=O
5,0.025 to 0.1 µM,CC(=O)NCCCC[C@H](NC(=O)[C@H](CCCCN)NC(=O)[C@H](Cc1ccc2ccccc2c1)NC(=O)[C@H](Cc1ccc(OCCNC(C)=O)cc1)NC(=O)[C@@H](NC(=O)[C@H](CCC(N)=O)NC(=O)[C@H](Cc1c[nH]c2ccccc12)NC(=O)[C@@H](NC(=O)[C@H](CCC(N)=O)NC(=O)[C@@H](NC(C)=O)C(C)(C)S)[C@@H](C)O)C(C)(C)S)C(=O)N[C@@H](CC(N)=O)C(=O)N[C@@H](CC(N)=O)C(N)=O
6,1 to 10 µM,CC(=O)NCCCC[C@H](NC(=O)[C@@](C)(NC(=O)[C@H](Cc1ccc2ccccc2c1)NC(=O)[C@H](Cc1ccc(C(N)=O)cc1)NC(=O)[C@@H](NC(=O)[C@H](CCC(N)=O)NC(=O)[C@H](Cc1c[nH]c2ccccc12)NC(=O)[C@@H](NC(=O)[C@H](CCC(N)=O)NC(=O)[C@@H](NC(=O)[C@@H](CCCCN)NC(C)=O)C(C)(C)S)[C@@H](C)O)C(C)(C)S)C(C)C)C(=O)N[C@@H](CC(N)=O)C(=O)N[C@@H](CC(N)=O)C(N)=O
7,< 0.01 µM,CC(=O)NCCCC[C@H](NC(=O)C(C)(C)NC(=O)[C@H](Cc1ccc2ccccc2c1)NC(=O)[C@H](Cc1ccc(OCCN)cc1)NC(=O)[C@@H](NC(=O)[C@H](CCC(N)=O)NC(=O)[C@H](Cc1c[nH]c2ccccc12)NC(=O)[C@@H](NC(=O)[C@H](CCC(N)=O)NC(=O)[C@@H](NC(=O)[C@@H](CC(=O)O)NC(C)=O)C(C)(C)S)[C@@H](C)O)C(C)(C)S)C(=O)N[C@@H](CC(N)=O)C(=O)N[C@@H](CC(N)=O)C(N)=O
8,0.1 µM,CC(=O)N[C@@H](CS)C(=O)N[C@@H](CN)C(=O)N[C@H](C(=O)N[C@@H](Cc1c[nH]c2ccccc12)C(=O)N[C@@H](CCC(N)=O)C(=O)N[C@@H](CS)C(=O)N[C@@H](Cc1ccc(O)cc1)C(=O)N[C@@H](Cc1c[nH]c2ccccc12)C(=O)N[C@@H](CCCNC(=N)N)C(=O)N[C@H](C(=O)N[C@@H](Cc1ccccc1)C(=O)NCC(=O)NCCOCC(=O)N[C@H](CCCCN)C(N)=O)C(C)C)[C@@H](C)O
9,< 0.01 µM,CC(=O)NCCCC[C@H](NC(=O)C(C)(C)NC(=O)[C@H](Cc1ccc2ccccc2c1)NC(=O)[C@H](Cc1ccc(OCCN)cc1)NC(=O)[C@@H](NC(=O)[C@H](CCC(N)=O)NC(=O)[C@H](Cc1c[nH]c2ccccc12)NC(=O)[C@@H](NC(=O)[C@H](CCC(N)=O)NC(=O)[C@@H](NC(C)=O)C(C)(C)S)[C@@H](C)O)C(C)(C)S)C(=O)N[C@@H](CC(N)=O)C(=O)N[C@@H](C)C(N)=O
10,< 0.01 µM,COc1ccc(C[C@H](NC(=O)[C@@H](NC(=O)[C@H](CCC(N)=O)NC(=O)[C@H](Cc2c[nH]c3ccccc23)NC(=O)[C@@H](NC(=O)[C@H](CC(N)=O)NC(=O)[C@@H](NC(C)=O)C(C)(C)S)[C@@H](C)O)C(C)(C)S)C(=O)N[C@@H](Cc2ccc3ccccc3c2)C(=O)NC(C)(C)C(=O)N[C@@H](CCCCNC(C)=O)C(=O)N[C@@H](CC(N)=O)C(=O)N[C@@H](C)C(N)=O)cc1
11,< 0.01 µM,COc1ccc(C[C@H](NC(=O)[C@@H](NC(=O)[C@H](CCC(N)=O)NC(=O)[C@H](Cc2c[nH]c3ccccc23)NC(=O)[C@@H](NC(=O)[C@H](CCC(N)=O)NC(=O)[C@@H](NC(C)=O)C(C)(C)S)[C@@H](C)O)C(C)(C)S)C(=O)N[C@@H](Cc2ccc3ccccc3c2)C(=O)NC(C)(C)C(=O)N[C@@H](CCCCNC(C)=O)C(=O)N[C@@H](CC(N)=O)C(=O)N[C@@H](CCC(N)=O)C(N)=O)cc1
12,< 0.01 µM,COc1ccc(C[C@H](NC(=O)[C@@H](NC(=O)[C@H](CCC(N)=O)NC(=O)[C@H](Cc2c[nH]c3ccccc23)NC(=O)[C@@H](NC(=O)[C@H](CCC(N)=O)NC(=O)[C@@H](NC(C)=O)C(C)(C)S)[C@@H](C)O)C(C)(C)S)C(=O)N[C@@H](Cc2ccc3ccccc3c2)C(=O)N[C@@H](CCC(C)C)C(=O)N[C@@H](CCCCNC(C)=O)C(=O)N[C@@H](CC(N)=O)C(=O)NCCC(N)=O)cc1
13,< 0.01 µM,CC(=O)NCCCC[C@H](NC(=O)C(C)(C)NC(=O)[C@H](Cc1ccc2ccccc2c1)NC(=O)[C@H](Cc1ccc(OCCN)cc1)NC(=O)[C@@H](NC(=O)[C@H](CCC(N)=O)NC(=O)[C@H](Cc1c[nH]c2ccccc12)NC(=O)[C@@H](NC(=O)[C@H](CCC(N)=O)NC(=O)[C@@H](NC(=O)[C@H](CCC(=O)O)NC(C)=O)C(C)(C)S)[C@@H](C)O)C(C)(C)S)C(=O)N[C@@H](CC(N)=O)C(=O)N[C@@H](CC(N)=O)C(N)=O (Ac-E[Pen]QTWQ[Pen][AEF][2Nal][Aib]K(Ac)NN-NH2)
14,< 0.01 µM,COc1ccc(C[C@H](NC(=O)[C@@H](NC(=O)[C@H](CCC(N)=O)NC(=O)[C@H](Cc2c[nH]c3ccccc23)NC(=O)[C@@H](NC(=O)[C@H](CCC(N)=O)NC(=O)[C@@H](NC(C)=O)C(C)(C)S)[C@@H](C)O)C(C)(C)S)C(=O)N[C@@H](Cc2ccc3ccccc3c2)C(=O)NC(C)(C)C(=O)N[C@@H](CCCCNC(C)=O)C(=O)N[C@@H](CC(N)=O)C(=O)NCCC(N)=O)cc1
15,< 0.01 µM,CC(=O)NCCCC[C@H](NC(=O)C(C)(C)NC(=O)[C@H](Cc1ccc2ccccc2c1)NC(=O)[C@H](Cc1ccc(OCCN)cc1)NC(=O)[C@@H](NC(=O)[C@H](CCC(N)=O)NC(=O)[C@H](Cc1c[nH]c2ccccc12)NC(=O)[C@@H](NC(=O)[C@H](CCC(N)=O)NC(=O)[C@@H](NC(=O)[C@@H](Cc1ccccc1)NC(C)=O)C(C)(C)S)[C@@H](C)O)C(C)(C)S)C(=O)N[C@@H](CC(N)=O)C(=O)N[C@@H](CC(N)=O)C(N)=O
16,0.01 to 0.025 µM,"COc1ccc(C[C@H](NC(=O)[C@H](Cc2ccc(C(N)=O)cc2)NC(=O)[C@@H](NC(=O)[C@H](CCC(N)=O)NC(=O)[C@H](Cc2c[nH]c3ccccc23)NC(=O)[C@@H](NC(=O)[C@H](CCC(N)=O)NC(=O)[C@@H](NC(C)=O)C(C)(C)S)[C@@H](C)O)C(C)(C)S)C(=O)N[C@](C)(C(=O)N[C@@H](CCCCNC(C)=O)C(=O)N[C@@H](CC(N)=O)C(=O)N[C@@H](CC(N)=O)C(N)=O)C(C)C)cc1OC (Ac-[Pen]QTWQ[Pen][Phe(4-CONH2)][Phe(3,4-(OMe)2)][αMeV]K(Ac)NN-NH2)"
17,< 0.01 µM,CC(=O)NCCCC[C@H](NC(=O)[C@H](CCC(C)C)NC(=O)[C@H](Cc1ccc2ccccc2c1)NC(=O)[C@H](Cc1ccc(OCCN)cc1)NC(=O)[C@@H](NC(=O)[C@H](CCC(N)=O)NC(=O)[C@H](Cc1c[nH]c2ccccc12)NC(=O)[C@@H](NC(=O)[C@H](CCC(N)=O)NC(=O)[C@@H](NC(C)=O)C(C)(C)S)[C@@H](C)O)C(C)(C)S)C(=O)N[C@@H](CC(N)=O)C(=O)NCCC(N)=O
18,0.01 to 0.025 µM,CC(=O)N[C@H]1CCSC[C@@H](C(=O)N[C@@H](Cc2ccc(OCCN)cc2)C(=O)N[C@@H](Cc2c[nH]c3ccc(O)cc23)C(=O)NC(C)(C)C(=O)N[C@@H](CCC(N)=O)C(=O)N[C@@H](CC(N)=O)C(=O)NCC(N)=O)NC(=O)[C@H](CCC(N)=O)NC(=O)[C@H](Cc2c[nH]c3ccccc23)NC(=O)[C@H]([C@@H](C)O)NC(=O)[C@H](CCC(N)=O)NC1=O

# Target: T1, Interleukin-23 receptor
# Assay: Inhibition of interleukin-23 binding to human interleukin-23 receptor incubated for 2 hrs by competitive binding ELISA
row,IC50,Structure (SMILES)
1,0.1 to 1 µM,CC(=O)N[C@H](C(=O)N[C@@](C)(CCCN)C(=O)N[C@H](C(=O)N[C@@H](Cc1c[nH]c2ccccc12)C(=O)N[C@@H](CCC(N)=O)C(=O)N[C@H](C(=O)N[C@@H](Cc1ccc(OCCN)cc1)C(=O)N[C@@H](Cc1ccc2ccccc2c1)C(=O)N[C@@](C)(CCCCN)C(=O)N[C@@H](CCC(=O)O)C(=O)N[C@@H](CC(N)=O)C(=O)NCC(N)=O)C(C)(C)S)[C@@H](C)O)C(C)(C)S
2,> 1 µM,CC(=O)N[C@@H](CS)C(=O)N[C@@H](C)C(=O)N[C@@H](CC(=O)O)C(=O)N[C@@H](Cc1c[nH]c2ccccc12)C(=O)N[C@H](C(=O)N[C@@H](CS)C(N)=O)C(C)C (Ac-CADWVC-NH2)
